Columns and labels:
PKM2 WT = PKM2 WT (Homo sapiens, UniProt P14618); experiment: PKM2 Assay, LDH-coupled, absorbance 340 nm; type: biochemical; conditions: wild type PKM2 enzyme activation
Procedure: (§1) PKM2 enzyme stock solution was diluted to prepare a 1.25× Reaction Mix (without ADP). 1 μL of test compound was first added to the wells followed by 40 μL of 1.25× Reaction Mix (without ADP) and incubated at room temperature (25° C.) for 60 min. The reaction was initiated with 10 μL ADP (0.4 mM final concentration), bringing the final Reaction Mix to 1x, and the reaction progress was measured as changes in absorbance at 340 nm wavelength at room temperature.
(§2) Test compound preparation: Test compounds were prepared at 50× final concentration in DMSO. 1 to 3 dilutions were made for 11 points (for example 50 μL of 5000 μM compound was added to 100 μL 100% DMSO to yield a 1667 μM, 50 μL of this added to 100 μL DMSO to yield 556 μM, and so forth). The compounds were added to the assay as a 1 to 50 dilution (1 μL in 50 μL) to yield a top concentration of 100 μM, decreasing 3-fold for 11 points.
Reaction Mix: PKM2 (5 ng/well, 0.1 μg/ml), ADP (0.4 mM), PEP (0.11 mM), NADH (180 μM), LDH (0.005 U/μL, Sigma #L3888), 1 mM DTT, 0.03% BSA in 1×
(§3) Reaction Buffer: 100 mM KCl, 50 mM Tris pH 7.5, 5 mM MgCl2.

PKR K410E = PKR K410E (Homo sapiens, UniProt P30613, K410E); experiment: PKR Mutant Assay (K410E), LDH-coupled, absorbance 340 nm; type: biochemical; conditions: mutant PKR K410E enzyme activation
Sequence of PKR K410E (P30613 whole entry K410E): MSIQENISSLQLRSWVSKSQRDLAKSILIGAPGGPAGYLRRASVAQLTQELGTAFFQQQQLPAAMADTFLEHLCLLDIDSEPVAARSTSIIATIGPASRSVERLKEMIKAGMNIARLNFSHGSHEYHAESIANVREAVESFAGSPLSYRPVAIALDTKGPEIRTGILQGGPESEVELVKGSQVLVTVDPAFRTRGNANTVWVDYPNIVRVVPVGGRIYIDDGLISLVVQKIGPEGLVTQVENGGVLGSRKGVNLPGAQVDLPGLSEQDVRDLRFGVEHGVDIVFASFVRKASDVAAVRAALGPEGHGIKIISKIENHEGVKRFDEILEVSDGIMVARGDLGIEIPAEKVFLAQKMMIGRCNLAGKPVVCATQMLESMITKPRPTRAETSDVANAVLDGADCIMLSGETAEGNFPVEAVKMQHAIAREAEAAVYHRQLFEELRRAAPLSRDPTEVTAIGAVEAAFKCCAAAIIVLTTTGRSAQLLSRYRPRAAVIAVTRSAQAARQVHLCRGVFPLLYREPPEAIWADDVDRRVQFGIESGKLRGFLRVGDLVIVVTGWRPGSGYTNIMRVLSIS
Procedure: as §1, with “PKR (WT or mutant)” for “PKM2”, “ADP,” for “ADP (0.4 mM final concentration),”
as §2
(§4) Reaction Mix: PKR (1.25-1000 ng/well, 0.025-20 μg/ml depending on the PKR mutant), ADP (0.05-2.3 mM depending on the PKR mutant), PEP (0.031-2 mM depending on the PKR mutant), NADH (180 μM), LDH (0.005 U/μL, Sigma #L3888), 1 mM DTT, 0.03% BSA in 1× Reaction Buffer
as §3

PKR WT = PKR WT (Homo sapiens, UniProt P30613); experiment: PKR enzyme assay (WT), LDH-coupled, absorbance 340 nm; type: biochemical; conditions: wild type PKR enzyme activation
Sequence of PKR WT (P30613 whole entry): as the sequence (P30613 whole entry K410E) above, with E410K counted along it
Procedure: as §1, with “PKR (WT or mutant)” for “PKM2”, “ADP,” for “ADP (0.4 mM final concentration),”
as §2, §4, §3

PK R510Q = PK R510Q (Homo sapiens, UniProt P30613, R510Q); experiment: PKR Mutant Assay (R510Q), LDH-coupled, absorbance 340 nm; type: biochemical; conditions: mutant PKR R510Q enzyme activation
Sequence of PK R510Q (P30613 whole entry R510Q): as the sequence (P30613 whole entry K410E) above, with E410K, R510Q counted along it
Procedure: as §1, with “PKR (WT or mutant)” for “PKM2”, “ADP,” for “ADP (0.4 mM final concentration),”
as §2, §4, §3

RBCs = experiment: Cell Based ATP Assay in purified red blood cells (Cell-Titer-Glo); design: species or system human; conditions: wild type PKR, ATP levels in RBCs, overnight at 37° C.
Procedure: Fresh blood drawn from healthy volunteers into K2EDTA tubes was collected. Whole blood was pelleted by spinning at 500 g for 10 minutes. The transfusion bag port was cut off Purecell leukocyte reduction neofilter (Fisher NC0267633) one (1) inch above filter. A 10 ml syringe barrel was attached to the remaining cut tubing attached to the neofilter. The plasma layer was removed from the pellet of the whole blood and the pellet was resuspended in 2× volume of phosphate buffered saline (PBS). 9 ml re-suspended blood cell pellet was transferred to a 10 ml syringe that was attached to the neofilter. The whole blood was allowed to gravity flow through filter until all fluid ran through upper tubing into a filter disc. The plunger was added to the syringe. The filter was inverted and air was plunged through the syringe filter system. A new 5 ml syringe was used to remove filtered RBCs from the bag by the syringe port. Purified RBCs were transferred to a 5 ml snap cap tube that had been incubated on ice. The 5 ml snap cap tube was spun at 500 g for 10 minutes at 15 C. Supernatant was aspirated and resuspended in AGAM (1×PBS, 1% glucose, 170 mg/L adenine, 5.25 g/L mannitol) at a density of 4×10^9 cells/mL.
For cell based ATP assays, the compound as described herein was prepared in 100% DMSO as a 10 mM stock. Serial dilutions (1:4) were performed in 96-well V-bottom storage plate and then added 1:100 to 96-well V-bottom plates containing AGAM. 10 μL/well of compound diluted in AGAM was added to black clear bottom assay plates. RBCs were diluted in AGAM media to a density of 1×10^7 cells/mL before added 90 μL/well to black clear bottom assay plates (final compound concentration at 0.1% DMSO concentration). Assay plates were sealed using aluminum foil seals and incubated overnight at 37° C. in a humidified chamber. ATP levels were read out using Cell-Titer-Glo (Promega).

PKM2 = PKM2 (Mus musculus, UniProt P52480); conditions: in vivo; cited from earlier work
Sequence of PKM2 (P52480 whole entry): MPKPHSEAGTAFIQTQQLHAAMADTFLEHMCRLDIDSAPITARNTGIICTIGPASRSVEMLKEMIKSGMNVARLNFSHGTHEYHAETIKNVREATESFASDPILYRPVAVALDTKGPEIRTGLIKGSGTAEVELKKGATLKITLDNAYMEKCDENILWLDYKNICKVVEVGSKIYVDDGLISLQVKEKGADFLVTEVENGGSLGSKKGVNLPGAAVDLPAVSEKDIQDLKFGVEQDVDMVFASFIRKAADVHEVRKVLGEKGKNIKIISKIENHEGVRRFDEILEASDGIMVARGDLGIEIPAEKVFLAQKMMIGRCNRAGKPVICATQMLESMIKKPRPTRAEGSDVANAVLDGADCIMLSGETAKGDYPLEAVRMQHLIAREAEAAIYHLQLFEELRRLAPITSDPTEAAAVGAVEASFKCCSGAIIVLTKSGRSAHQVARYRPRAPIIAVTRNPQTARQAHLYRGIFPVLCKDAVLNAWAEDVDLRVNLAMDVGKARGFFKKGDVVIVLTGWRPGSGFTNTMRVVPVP

Sequence of PKM2 WT (P14618 whole entry): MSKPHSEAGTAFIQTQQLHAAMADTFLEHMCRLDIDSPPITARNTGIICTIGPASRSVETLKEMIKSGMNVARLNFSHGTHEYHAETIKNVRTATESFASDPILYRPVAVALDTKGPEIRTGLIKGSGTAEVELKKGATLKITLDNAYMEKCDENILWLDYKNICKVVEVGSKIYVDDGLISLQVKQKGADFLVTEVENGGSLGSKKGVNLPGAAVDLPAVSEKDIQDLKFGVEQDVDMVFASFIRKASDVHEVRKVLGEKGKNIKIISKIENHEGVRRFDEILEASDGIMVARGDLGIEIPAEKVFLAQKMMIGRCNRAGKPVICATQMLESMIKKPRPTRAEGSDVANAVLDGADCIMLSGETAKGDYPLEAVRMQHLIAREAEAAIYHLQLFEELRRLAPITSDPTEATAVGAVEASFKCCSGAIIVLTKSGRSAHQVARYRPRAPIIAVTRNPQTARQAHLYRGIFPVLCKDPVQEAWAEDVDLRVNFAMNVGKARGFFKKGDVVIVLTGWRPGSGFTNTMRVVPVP

Structure (SMILES)	AC50 (PKM2 WT) [nM]	PKR K410E AC50 (PKR K410E)	PKR WT AC50 (PKR WT)	PK R510Q AC50 (PK R510Q)	AC50 (PKR K410E) [nM]	AC50 (PKR WT) [nM]	AC50 (PK R510Q) [nM]	Cell based ATP assay AC50 (RBCs)	AC50 (RBCs; Homo sapiens, Erythrocyte) [nM]	LPS and IL-1β production (PKM2)	production of IL-10 (PKM2)
COc1cccc(Cc2ccc3c4sc(C)cc4n(C)c3c2)c1 [Cpd 2]	> 800	No Fit	No Fit	No Fit							
COc1cccc(Cn2ncc3c4oc(C)nc4n(C)c3c2=O)c1 [Cpd 3]	301 to 800				> 800	> 800	> 800				
COc1cccc(Cn2ncc3c4sc(Cc5ccccc5)cc4n(C)c3c2=O)c1 [Cpd 4]	< 300				< 300	< 300	< 300				
COc1cccc(Cn2ncn3c(c(C)c4nc(C)sc43)c2=O)c1 [Cpd 25]	> 800				> 800	> 800	> 800	No Fit			
Cc1nc2c3cnn(Cc4ccccc4)c(=O)c3n(C)c2s1 [Cpd 26]	> 800				> 800	> 800	> 800	No Fit			
COc1cccc(Cn2ncc3c4n[nH]cc4n(C)c3c2=O)c1 [Cpd 29]	> 800				> 800	> 800	> 800				
COc1cccc(Cn2ncc3c4nn(C)cc4n(C)c3c2=O)c1 [Cpd 30]	> 800				> 800	> 800	> 800				
Cn1ccc(Cn2ncc3c4cc(Cc5cscn5)ccc4n(C)c3c2=O)n1 [Cpd 31]	> 800				> 800	> 800	> 800		> 1000		
COc1cccc(Cn2ncc3c4c(Br)cccc4n(C)c3c2=O)c1 [Cpd 32]	> 800				> 800	> 800	> 800				
COc1cccc(Cn2ncc3c4cc(Cc5ccccc5)ccc4n(C)c3c2=O)c1 [Cpd 34]	> 800				> 800	> 800	> 800				
Cn1cc(Cc2ccc3c(c2)c2cnn(Cc4cccc(C(N)=O)c4)c(=O)c2n3C)cn1 [Cpd 35]	301 to 800	No Fit	No Fit	No Fit				No Fit			
COc1cccc(Cn2ncc3c4cc(Br)ccc4n(C)c3c2=O)c1 [Cpd 36]	301 to 800				> 800	> 800	> 800				
COC(=O)c1ccc2c(c1)c1cnn(Cc3cccc(OC)c3)c(=O)c1n2C [Cpd 37]	> 800				> 800	> 800	> 800				
CNC(=O)c1ccc2c(c1)c1cnn(Cc3cccc(OC)c3)c(=O)c1n2C [Cpd 38]	> 800	No Fit	No Fit	No Fit							
C=Cc1ccc2c(c1)c1cnn(Cc3cccc(OC)c3)c(=O)c1n2C [Cpd 39]	> 800				> 800	> 800	> 800				
CNC(=O)c1ccc2c3cnn(Cc4cccc(OC)c4)c(=O)c3n(C)c2c1 [Cpd 41]	< 300	No Fit		No Fit		> 800					

Structure (SMILES)	AC50 (PKM2 WT) [nM]	PKR K410E AC50 (PKR K410E)	PKR WT AC50 (PKR WT)	PK R510Q AC50 (PK R510Q)	AC50 (PKR K410E) [nM]	AC50 (PKR WT) [nM]	AC50 (PK R510Q) [nM]	Cell based ATP assay AC50 (RBCs)	AC50 (RBCs; Homo sapiens, Erythrocyte) [nM]	LPS and IL-1β production (PKM2)	production of IL-10 (PKM2)
C=Cc1ccc2c3cnn(Cc4cccc(OC)c4)c(=O)c3n(C)c2c1 [Cpd 42]	> 800				> 800	> 800	> 800				
CCc1ccc2c3cnn(Cc4cccc(OC)c4)c(=O)c3n(C)c2c1 [Cpd 43]	> 800				> 800	> 800	> 800				
COc1cccc(Cn2ncc3c4cc(CO)ccc4n(C)c3c2=O)c1 [Cpd 44]	301 to 800				> 800	> 800	> 800				
COc1cccc(Cn2ncc3c4cc(C#N)ccc4n(C)c3c2=O)c1 [Cpd 45]	< 300				> 800	> 800	> 800				
COc1cccc(Cn2ncc3c4c(C)cccc4n(C)c3c2=O)c1 [Cpd 46]	> 800		No Fit	No Fit	> 800						
COc1cccc(Cn2ncc3c4cc(O)ccc4n(C)c3c2=O)c1 [Cpd 48]	301 to 800				> 800	> 800	> 800				
Cn1c2ccc([S+](C)[O-])cc2c2cnn(Cc3cccc(C(N)=O)c3)c(=O)c21 (stereo not shown) [Cpd 51]	> 800				> 800	> 800	> 800	No Fit			
Cn1c2ccc(S(C)(=O)=O)cc2c2cnn(Cc3cccc(C(N)=O)c3)c(=O)c21 [Cpd 52]	301 to 800				> 800	> 800	> 800	No Fit			
COc1cccc(Cn2ncc3c4cccc(Cc5ccccc5)c4n(C)c3c2=O)c1 [Cpd 59]	> 800			No Fit	> 800	> 800					
COc1cccc(Cn2ncc3c4ccc(Cc5ccccc5)cc4n(C)c3c2=O)c1 [Cpd 60]	301 to 800				> 800	> 800	301 to 800				
COc1cccc(Cn2ncc3c4c(Cc5ccccc5)cccc4n(C)c3c2=O)c1 [Cpd 61]	> 800	No Fit	No Fit	No Fit							
Cn1cc(Cc2ccc3c4cnn(Cc5cccc(C(N)=O)c5)c(=O)c4n(C)c3c2)cn1 [Cpd 62]	301 to 800				> 800	> 800	> 800	No Fit			
COc1cccc(Cn2ncc3c4cc(C(F)(F)F)ccc4n(C)c3c2=O)c1 [Cpd 63]	> 800				> 800	> 800	> 800				
COc1cccc(Cn2ncc3c4ncccc4n(C)c3c2=O)c1 [Cpd 65]	> 800				> 800	> 800	> 800				
COc1cccc(Cn2ncc3c4cccnc4n(C)c3c2=O)c1 [Cpd 66]	301 to 800				> 800	> 800	301 to 800				
Cn1c2cc([S+](C)[O-])sc2c2cnn(Cc3cccc(N)c3)c(=O)c21 (stereo not shown) [TEPP-46]										inhibited	boosting

— patent US20220127267A1, “THIENO[3,2-B] PYRROLE[3,2-D]PYRIDAZINONE DERIVATIVES AND THEIR USE AS PKM2 DERIVATIVES FOR THE TREATMENT OF CANCER, OBESITY AND DIABETES RELATED DISORDERS” (Agios Pharmaceuticals, Inc., priority 2019, published 2022)
